Experimental data taken from patent publication US12514938B2, “Fibroblast activation protein targeting peptides” (PERSPECTIVE THERAPEUTICS, INC., priority 2023, dated 2026).
*1 amine or outer side, *2 acyl side, *3 side chain or, on linkers, in order; H or OH if unused. Where a SMILES comes first, the peptide text is derived from it. Bridges are numbered along the chain shown (N, C = ends). [ ]: non-standard residue; d: D form. The star is where a group is joined. X3 = NC(=O)CN1CCN(CC(=O)O)CCN(CC(=O)NCCOCCOCCC(=O)N[C@@H](Cc2ccccc2)C(=O)NC(CC(=O)[*:1])CC(=O)[*:2])CCN(CC(=O)O)CC1; X1 = NC(=O)CN1CCN(CC(=O)O)CCN(CC(=O)*)CCN(CC(=O)O)CC1; oXylylene = c1ccc(C[*:2])c(C[*:1])c1; Dap = NC[C@H](N)C(=O)O; PEG2 = NCCOCCOCCC(=O)O

Biological target: T1, Human Fibroblast Activation Protein (FAP) (Homo sapiens, UniProt Q12884)
T1 sequence (Q12884 1-760): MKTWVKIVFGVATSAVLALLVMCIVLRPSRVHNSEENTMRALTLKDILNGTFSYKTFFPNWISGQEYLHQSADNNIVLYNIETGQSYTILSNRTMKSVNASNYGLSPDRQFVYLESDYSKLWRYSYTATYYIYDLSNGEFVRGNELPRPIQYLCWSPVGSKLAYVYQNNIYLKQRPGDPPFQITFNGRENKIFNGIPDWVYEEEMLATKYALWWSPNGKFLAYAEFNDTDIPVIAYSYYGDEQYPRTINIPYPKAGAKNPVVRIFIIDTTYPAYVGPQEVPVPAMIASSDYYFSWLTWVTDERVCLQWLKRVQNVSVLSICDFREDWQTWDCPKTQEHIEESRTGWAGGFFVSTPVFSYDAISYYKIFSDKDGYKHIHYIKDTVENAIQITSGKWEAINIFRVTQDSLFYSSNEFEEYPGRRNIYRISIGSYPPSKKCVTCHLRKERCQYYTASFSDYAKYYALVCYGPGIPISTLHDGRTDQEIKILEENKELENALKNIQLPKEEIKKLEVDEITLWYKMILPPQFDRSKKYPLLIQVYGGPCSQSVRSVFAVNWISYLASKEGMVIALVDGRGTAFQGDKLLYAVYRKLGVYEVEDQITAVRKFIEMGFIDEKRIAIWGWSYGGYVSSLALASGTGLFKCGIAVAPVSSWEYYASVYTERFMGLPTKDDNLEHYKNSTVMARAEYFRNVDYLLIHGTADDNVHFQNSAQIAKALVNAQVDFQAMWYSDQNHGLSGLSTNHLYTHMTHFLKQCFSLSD
Experiment: Enzyme inhibition assay against human FAP (substrate Z-GP-AMC), Example 1
Assay type: biochemical
Details: human FAP 5 ng/well, 50 μM Z-GP-AMC; Ki from IC50 by Cheng-Prusoff
Method: Binding Affinity Against Human Fibroblast Activation Protein (FAP)
An enzyme inhibition assay was performed to determine IC50 values and then the Cheng-Prusoff equation used to calculate the Ki given a known Km of the substrate Z-GP-AMC for FAP. To perform the assay, FAP (5 ng/well) and the test peptide at varying concentrations (i.e. 10^−6 to 10^−12) were incubated in a black 96-well plate for 10 minutes at RT on a shaker plate. Then, the substrate Z-GP-AMC was added to give a final concentration of 50 μM. The total reaction volume per well was 100 μL The reaction was allowed to incubate at RT on a shaker plate for 1 hour protected from light, and then fluorescence read with a BioTek Synergy LX plate reader at an ex/em (360/40 and 460/40). Experiments were performed in at least duplicate, and controls of buffer only, buffer and FAP enzyme, and buffer with substrate and FAP enzyme only were included for comparison. The buffer used for the assay was 50 mM Tris-HCl, 1M NaCl, and 1 mg/mL BSA, pH=7.5. Data was plotted in GraphPad Prism and non-linear regression used to calculate IC50 values. The compounds tested and Ki values of each were as follows: […]

Ki [pM]	SMILES
1830	CC(=O)N[C@@H](CO)C(=O)N[C@H]1CSCc2ccccc2CSC[C@@H](C(N)=O)NC(=O)[C@H](Cc2c[nH]c3ccccc23)NC(=O)[C@H](Cc2c[nH]c3ccccc23)NC(=O)[C@H](CC(=O)O)NC(=O)[C@H](CCC(=O)O)NC(=O)[C@H](Cc2ccccc2)NC(=O)[C@@H]2CCCN2C(=O)[C@H]([C@@H](C)O)NC1=O [VMT-FAP-1-104, Ac-S[C(oXdB)TPFEDWWC]-NH2] (Ac-SCTPFEDWWC-NH2; linker 2-10 via oXylylene)
380	CC(=O)N[C@@H](CO)C(=O)N[C@H]1CSCc2ccccc2CSC[C@@H](C(N)=O)NC(=O)[C@H](Cc2c[nH]c3ccccc23)NC(=O)[C@H](Cc2c[nH]c3ccccc23)NC(=O)[C@H](CCC(=O)O)NC(=O)[C@H](CCC(=O)O)NC(=O)[C@H](Cc2ccccc2)NC(=O)[C@@H]2CCCN2C(=O)[C@H]([C@@H](C)O)NC1=O [VMT-FAP-1-105, Ac-S[C(oXdB)TPFEEWWC]-NH2] (Ac-SCTPFEEWWC-NH2; linker 2-10 via oXylylene)
550	CC(=O)N[C@@H](CO)C(=O)N[C@H]1CSCc2ccccc2CSC[C@@H](C(N)=O)NC(=O)[C@H](Cc2c[nH]c3ccccc23)NC(=O)[C@H](Cc2c[nH]c3ccccc23)NC(=O)[C@H](CCC(N)=O)NC(=O)[C@H](CCC(=O)O)NC(=O)[C@H](Cc2ccccc2)NC(=O)[C@@H]2CCCN2C(=O)[C@H]([C@@H](C)O)NC1=O [VMT-FAP-2-12, Ac-S[C(oXdB)TPFEQWWC]-NH2] (Ac-SCTPFEQWWC-NH2; linker 2-10 via oXylylene)
450	C[C@H](N)C(=O)N[C@H]1CSCc2ccccc2CSC[C@@H](C(N)=O)NC(=O)[C@H](Cc2c[nH]c3ccccc23)NC(=O)[C@H](Cc2c[nH]c3ccccc23)NC(=O)[C@H](CCC(N)=O)NC(=O)[C@H](CCC(=O)O)NC(=O)[C@H](Cc2ccccc2)NC(=O)[C@@H]2CCCN2C(=O)[C@H]([C@@H](C)O)NC1=O [VMT-FAP-2-19, A[C(oXdB)TPFEQWWC]-NH2] (H-ACTPFEQWWC-NH2; linker 2-10 via oXylylene; N-terminus assumed)
290	C[C@@H]1NC(=O)[C@H](CCC(=O)O)NC(=O)[C@H](Cc2ccccc2)NC(=O)[C@@H]2CCCN2C(=O)[C@H]([C@@H](C)O)NC(=O)[C@@H](NC(=O)[C@@H](N)CO)CSCc2ccccc2CSC[C@@H](C(N)=O)NC(=O)[C@H](Cc2c[nH]c3ccccc23)NC(=O)[C@H](Cc2c[nH]c3ccccc23)NC1=O [VMT-FAP-2-23, S[C(oXdB)TPFEAWWC]-NH2] (H-SCTPFEAWWC-NH2; linker 2-10 via oXylylene; N-terminus assumed)
2290	CC(=O)N[C@@H](CO)C(=O)N[C@H]1CSCc2ccccc2CSC[C@@H](C(N)=O)NC(=O)[C@H](Cc2ccc(O)cc2)NC(=O)[C@H](Cc2c[nH]c3ccccc23)NC(=O)[C@H](CCC(N)=O)NC(=O)[C@H](CCC(=O)O)NC(=O)[C@H](Cc2ccccc2)NC(=O)[C@@H]2CCCN2C(=O)[C@H]([C@@H](C)O)NC1=O [VMT-FAP-2-28, Ac-S[C(oXdB)TPFEQWYC]-NH2] (Ac-SCTPFEQWYC-NH2; linker 2-10 via oXylylene)
13600	CC(=O)N[C@@H](CO)C(=O)N[C@H]1CSCc2ccccc2CSC[C@@H](C(N)=O)NC(=O)[C@H](Cc2c[nH]c3ccccc23)NC(=O)[C@H](Cc2ccc(O)cc2)NC(=O)[C@H](CCC(N)=O)NC(=O)[C@H](CCC(=O)O)NC(=O)[C@H](Cc2ccccc2)NC(=O)[C@@H]2CCCN2C(=O)[C@H]([C@@H](C)O)NC1=O [VMT-FAP-2-29, Ac-S[C(oXdB)TPFEQYWC]-NH2] (Ac-SCTPFEQYWC-NH2; linker 2-10 via oXylylene)
40	C[C@@H](O)[C@@H]1NC(=O)[C@@H](NC(=O)[C@H](CO)NC(=O)CCOCCOCCNC(=O)CN2CCN(CC(=O)O)CCN(CC(N)=O)CCN(CC(=O)O)CC2)CSCc2ccccc2CSC[C@@H](C(N)=O)NC(=O)[C@H](Cc2c[nH]c3ccccc23)NC(=O)[C@H](Cc2c[nH]c3ccccc23)NC(=O)[C@H](CCC(N)=O)NC(=O)[C@H](CCC(=O)O)NC(=O)[C@H](Cc2ccccc2)NC(=O)[C@@H]2CCCN2C1=O [VMT-FAP-2-30, PSC-PEG2-S-[C(oXdB)TPFEQWWC]-NH2] ({X1-PEG2}-SCTPFEQWWC-NH2; linker 2-10 via oXylylene)
1260	CC(=O)N[C@@H](CO)C(=O)N[C@H]1CNC(=O)CC(NC(=O)[C@H](Cc2ccccc2)NC(=O)CCOCCOCCNC(=O)CN2CCN(CC(=O)O)CCN(CC(N)=O)CCN(CC(=O)O)CC2)CC(=O)NC[C@@H](C(N)=O)NC(=O)[C@H](Cc2c[nH]c3ccccc23)NC(=O)[C@H](Cc2c[nH]c3ccccc23)NC(=O)[C@H](CCC(N)=O)NC(=O)[C@H](CCC(=O)O)NC(=O)[C@H](Cc2ccccc2)NC(=O)[C@@H]2CCCN2C(=O)[C@H]([C@@H](C)O)NC1=O (stereo partly drawn) [VMT-FAP-2-33, Ac-S-[Dap(bGlu(F-PEG2-PSC))TPFEQWWDap]-NH2] (Ac-S[Dap]TPFEQWW[Dap]-NH2; linker 2-10 via X3 (inferred))
760	C[C@@H](O)[C@@H]1NC(=O)[C@@H](NC(=O)CCOCCOCCNC(=O)CN2CCN(CC(=O)O)CCN(CC(N)=O)CCN(CC(=O)O)CC2)CSCc2ccccc2CSC[C@@H](C(N)=O)NC(=O)[C@H](Cc2c[nH]c3ccccc23)NC(=O)[C@H](Cc2c[nH]c3ccccc23)NC(=O)[C@H](CCC(N)=O)NC(=O)[C@H](CCC(=O)O)NC(=O)[C@H](Cc2ccccc2)NC(=O)[C@@H]2CCCN2C1=O [VMT-FAP-2-36, PSC-PEG2-[C(oXdB)TPFEQWWC]-NH2] ({X1-PEG2}-CTPFEQWWC-NH2; linker 1-9 via oXylylene)
670	C[C@@H](O)[C@@H]1NC(=O)[C@@H](NC(=O)[C@H](CO)NC(=O)[C@H](Cc2ccccc2)NC(=O)CCOCCOCCNC(=O)CN2CCN(CC(=O)O)CCN(CC(N)=O)CCN(CC(=O)O)CC2)CSCc2ccccc2CSC[C@@H](C(N)=O)NC(=O)[C@H](Cc2c[nH]c3ccccc23)NC(=O)[C@H](Cc2c[nH]c3ccccc23)NC(=O)[C@H](CCC(N)=O)NC(=O)[C@H](CCC(=O)O)NC(=O)[C@H](Cc2ccccc2)NC(=O)[C@@H]2CCCN2C1=O [VMT-FAP-2-39, PSC-PEG2-F-S-[C(oXdB)TPFEQWWC]-NH2] ({X1-PEG2}-FSCTPFEQWWC-NH2; linker 3-11 via oXylylene)
1270	CC(=O)N[C@H]1CSCc2ccccc2CSC[C@@H](C(N)=O)NC(=O)[C@H](Cc2c[nH]c3ccccc23)NC(=O)[C@H](Cc2c[nH]c3ccccc23)NC(=O)[C@H](CCC(N)=O)NC(=O)[C@H](CCC(=O)O)NC(=O)[C@H](Cc2ccccc2)NC(=O)[C@@H]2CCCN2C(=O)[C@H]([C@@H](C)O)NC1=O [VMT-FAP-2-40, Ac-[C(oXdB)TPFEQWWC]-NH2] (Ac-CTPFEQWWC-NH2; linker 1-9 via oXylylene)
190	C[C@@H](O)[C@@H]1NC(=O)[C@@H](NC(=O)[C@H](CC(=O)O)NC(=O)CCOCCOCCNC(=O)CN2CCN(CC(=O)O)CCN(CC(N)=O)CCN(CC(=O)O)CC2)CSCc2ccccc2CSC[C@@H](C(N)=O)NC(=O)[C@H](Cc2c[nH]c3ccccc23)NC(=O)[C@H](Cc2c[nH]c3ccccc23)NC(=O)[C@H](CCC(N)=O)NC(=O)[C@H](CCC(=O)O)NC(=O)[C@H](Cc2ccccc2)NC(=O)[C@@H]2CCCN2C1=O [VMT-FAP-2-41, PSC-PEG2-D-[C(oXdB)TPFEQWWC]-NH2] ({X1-PEG2}-DCTPFEQWWC-NH2; linker 2-10 via oXylylene)
